2 molecules from patent publication US20160311795A1, “PYRIMIDINE DIAMINE DERIVATIVES AS INHIBITORS OF CYTOSOLIC HSP90” (CALASIA PHARMACEUTICALS, INC., priority 2012, published 2016) can be followed below.

Molecules are shown by their SMILES. pEC50, pIC50, pKi: −log10 of the molar value. Like-named read-outs stand apart in the source and are kept apart here.

For experiment [1], the system named is Hsp90. Briefly: Rat CNS Hsp90 inhibition (ex vivo labeled geldanamycin displacement in CNS lysates). Particulars: 40 mg/kg.
The target of experiment [2] is T1, human full length Hsp90 (Homo sapiens, UniProt P07900).
T1 construct: amino acid residues 1 to 732 of human Hsp90 (GenBank: BC121062.2); made in house; host or cells: E. coli BL21DE3 (pET15b)
Briefly: Fluorescence polarization Hsp90 competitive binding assay (GM-FITC displacement). The protocol:
Hsp90 binding assays was performed generally according to the procedure described in J. Biomol. […] Hsp90 inhibitors were solubilized in DMSO at a stock concentration of 50 mM. […] Eighty five μl of binding assay buffer (20 mM HEPES, pH-7.5, 50 mM KCl, 5 mM MgCl2, 20 mM sodium molybdate, 0.01% NP-40, 2 mM DTT, and 0.1 mg/ml BSA) was added to the wells of a 96 well black plate placed on ice. […] Next, 10 μl either binding assay buffer alone (control) or human full length Hsp90 protein diluted in the binding assay buffer was added to achieve a final concentration of 50 nM. The plates were incubated at 4° C. on a plate shaker for 24 h. Two μl of 50× GM-FITC (9 nM final) in DMSO was added to all wells and the plate was incubated at ambient temperature for 1 h with shaking. Fluorescence polarization readings were taken in duplicate at excitation and emission wavelengths of 480 nm and 500 nm respectively. Specific binding was calculated by subtracting polarization values in the presence of Hsp90 from those in the absence of Hsp90. To calculate percent inhibition the specific binding values obtained for GA-FITC in the presence of compound were compared to values for GA-FITC in the absence of compound (DMSO only).
For orientation: In fluorescence polarisation assays a small probe gives low polarisation when free and higher when bound to something large.

Experiment [3] deals with Akt1 in LnCaP cells. The experiment in a line: Akt1 degradation in cell lysates, ELISA. It counts as cell-based. Particulars: Homo sapiens, 48 h. The method, then:
Tumor cell lines (LnCaP) were obtained from the Sanford Burnham Medical Research Institute (La Jolla, Calif.), LnCaP cells were cultured in culture medium (RPMI-glutamax, 10% FCS, 100 units/ml penicillin, and 100 μg/ml streptomycin). Cells were passaged after lifting using 0.25% trypsin/EDTA, and 3×10^5 cells were seeded in each well of six well plates (total volume 2.5 mL/well). After the cells were cultured for 24 h, increasing concentrations of Hsp90 inhibitor were added to wells in triplicate from DMSO-containing stock solutions and mixed by gently by stirring. Final DMSO concentration in all wells was 0.25%. The treated cells were then cultured for 48 h prior to lysate preparation. […] The protein concentration in the cell lysates was determined using the BCA protein assay kit used according to the manufacturer's recommendations. […] Two hundred μL of BCA Protein Assay Kit reagent was added and the mixtures were incubated at 37° C. for 30 min Protein concentrations were determined using a micro-titer plate reader (Model #Synergy HT; BioTek Inc., Winooski, Vt.).
Akt1 levels in the cell lysates were measured using kits from R&D Systems used according to the manufacturer's recommendations. […] Akt1 levels were determined using a micro-titer plate reader (Model #Synergy HT; BioTek Inc., Winooski, Vt.). […] Fluorescence intensities of the dilutions were measured to obtain a standard curve. […]
A general note: ELISA stands for enzyme-linked immunosorbent assay.

In experiment [4] the test system is R127. The experiment in a line: Efficacy in ovarian cancer cells, ADP-GLO. It counts as cell-based. The method, then:
(§1) The effect of SBI-0640725 on cell viability was determined by measuring cellular dehydrogenase activity (U251MG and MBA-MD-231 cells) or by measuring ADP levels (HepG2) after treating cells for 72 hours with increasing concentrations of SBI-0640725. To measure dehydrogenase activity, CCK-8 kit reagent (Dojindo) was added to the wells and incubated for 2 hours, after which absorbance was measured at 450 nm using a Synergy HT micro-titer plate reader (Biotek). To measure ADP levels, ADP-GLO reagent (Life Technologies) was added to the wells, and luminescence was measured after a 30 minute incubation using a POLARstar Omega micro-titer plate reader (BMG).
(§2) The table below summarizes efficacy of SBI-0640725 in various cancer cell lines, including U251MG, MDA-MB-231, and HepG2, using ADP-GLO assay described above. As used herein “efficacy” (EC50) is the concentration of a compound that produces half-maximal response in a cellular assay.
On the technique in general: ADP-Glo turns the ADP formed in a reaction into a luminescent signal.

Experiment [5] deals with R182. Briefly: Efficacy in ovarian cancer cells, ADP-GLO. It counts as cell-based. The method, then: as §1, §2
Setting [6] is: IC50, inhibition of Hsp90 activity, FIG. 7 concentration response.
The mark [7] stands for this setting: Table 1, 50 nM Hsp90, 9 nM GM-FITC, read-out: Biochemical Potency IC50.
The mark [8] stands for this setting: Table II, binding affinities ranked by potency.
Where [9] appears, read: Table II, binding affinities ranked by potency, read-out: IC50.

By pIC50 is commonly meant the IC50 on a negative log10 scale, so that one unit is a factor of ten. The pKi is the Ki on a negative log10 scale, so that one unit is a factor of ten. Lower therefore signals a large Ki. As for `COc1c(C)cnc(CN(CCc2ccccc2)c2cc(Cl)nc(N)n2)c1C` [SBI-0639353, 6-Chloro-N4-((4-methoxy-3,5-dimethylpyridin-2-yl)methyl)-N4-phenethylpyrimidine-2,4-diamine], the “inhibition of Hsp90 activity in CNS tissues” value in experiment [1] is listed as “inhibition of Hsp90 activity”. Moreover, the pIC50 in experiment [2] (setting [6]) is 6.59; in experiment [2] (setting [7]), 6.59; in experiment [2] (setting [9]), 6.59; in experiment [2] (assay validation / precision runs, read-out: IC50), 6.51 to 6.59; in experiment [3], 5.27. Besides, the pKi in experiment [2] (setting [8]) was 7.19.

In general, pEC50 refers to −log10 of the EC50, conventionally taken in molar units. As to `COc1c(C)cnc(CN(CCc2ccc(F)cc2)c2cc(Cl)nc(N)n2)c1C` [SBI-0640725], the pEC50 in experiment [4] is 6.39; in experiment [5] it was 6.16. For the same molecule, the pIC50 in experiment [2] (setting [6]), in experiment [2] (setting [7]) and in experiment [2] (setting [9]) was 7.00 each time. The molecule further showed a pKi in experiment [2] (setting [8]) of 7.60.
